{"source": "patent US20040063734A1", "about": "“4,4-Disubstituted-3,4-dihydro-2 (1H)-quinazoliniones useful as HIV reverse transcriptase inhibitors” (priority 2002, published 2004)", "system": "HIV-1 (RF)", "assay": "HIV RNA assay: microplate based compound evaluation in HIV-1 infected MT-2 cells", "format": "cell-based", "conditions": "Human immunodeficiency virus 1, MT2, 72 h; HIV-1 (RF) infected MT-2 cells, 3 days culture; value used to standardize the virus inoculum; read-out: IC90 (concentration of compound required to reduce the HIV RNA level by 90%)", "experimental": "DNA Plasmids and in vitro RNA Transcripts:\nPlasmid pDAB 72 containing both gag and pol sequences of BH10 (bp 113-1816) cloned into PTZ 19R was prepared according to Erickson-Viitanen et al. AIDS Research and Human Retroviruses 1989, 5, 577. The plasmid was linearized with Bam HI prior to the generation of in vitro RNA transcripts using the Riboprobe Gemini system II kit (Promega) with T7 RNA polymerase. Synthesized RNA was purified by treatment with RNase free DNAse (Promega), phenol-chloroform extraction, and ethanol precipitation. RNA transcripts were dissolved in water, and stored at −70° C. The concentration of RNA was determined from the A260.\nBiotinylated capture probes were purified by HPLC after synthesis on an Applied Biosystems (Foster City, Calif.) DNA synthesizer by addition of biotin to the 5′ terminal end of the oligonucleotide, using the biotin-phosphoramidite reagent of Cocuzza, Tet. Lett. 1989, 30, 6287. […]\nMT-2 and MT-4 cells were maintained in RPMI 1640 supplemented with 5% fetal calf serum (FCS) for MT-2 cells or 10% FCS for MT-4 cells, 2 mM L-glutamine and 50 μg/mL gentamycin, all from Gibco. […] Infectious titers of HIV-1(RF) stocks were 1-3×10^7 PFU (plaque forming units)/mL as measured by plaque assay on MT-2 cells (see below). […]"}
{"compound": "Nc1ccn([C@H]2CC[C@@H](CO)O2)c(=O)n1", "note": "[ddC, 2′,3′-dideoxycytidine]", "values": [{"measurement": "IC90", "value": 0.2, "unit": "µg/mL"}]}
